Measured values from patent publication US20240182481A1 (Tango Therapeutics, Inc., priority 2021, published 2024).

Legend:
[1] = test system: HCC1954 (BRCA1 WT) cell line; test: Viability assay in BRCA1 WT cell line HCC1954; format: cell-based; details: Homo sapiens, read-out: HCC 1954 IC50 rel IC50
Text: (§1) Table 1 also indicates IC50 values in a viability assay for a non-isogenic pair of BRCA1 mutant (column 5—MDA-MB-436) and BRCA1 WT (column 6—HCC1954) cell lines. These values indicate the effect of treatment with compound on cell survival.

[2] = test system: MDA-MB-436 (BRCA1 mutant) cell line; test: Viability assay in BRCA1 mutant cell line MDA-MB-436; format: cell-based; details: Homo sapiens, MDA-MB-436, viability, BRCA1 mutant MDA-MB-436; read-out: MDA-MB-436 rel IC50
Text: as §1

USP1-UAF1 = USP1-UAF1 (Homo sapiens, UniProt O94782); test: Ubiquitin Rhodamine assay for USP1-UAF1 activity; format: biochemical
USP1-UAF1, sequence (O94782 whole entry): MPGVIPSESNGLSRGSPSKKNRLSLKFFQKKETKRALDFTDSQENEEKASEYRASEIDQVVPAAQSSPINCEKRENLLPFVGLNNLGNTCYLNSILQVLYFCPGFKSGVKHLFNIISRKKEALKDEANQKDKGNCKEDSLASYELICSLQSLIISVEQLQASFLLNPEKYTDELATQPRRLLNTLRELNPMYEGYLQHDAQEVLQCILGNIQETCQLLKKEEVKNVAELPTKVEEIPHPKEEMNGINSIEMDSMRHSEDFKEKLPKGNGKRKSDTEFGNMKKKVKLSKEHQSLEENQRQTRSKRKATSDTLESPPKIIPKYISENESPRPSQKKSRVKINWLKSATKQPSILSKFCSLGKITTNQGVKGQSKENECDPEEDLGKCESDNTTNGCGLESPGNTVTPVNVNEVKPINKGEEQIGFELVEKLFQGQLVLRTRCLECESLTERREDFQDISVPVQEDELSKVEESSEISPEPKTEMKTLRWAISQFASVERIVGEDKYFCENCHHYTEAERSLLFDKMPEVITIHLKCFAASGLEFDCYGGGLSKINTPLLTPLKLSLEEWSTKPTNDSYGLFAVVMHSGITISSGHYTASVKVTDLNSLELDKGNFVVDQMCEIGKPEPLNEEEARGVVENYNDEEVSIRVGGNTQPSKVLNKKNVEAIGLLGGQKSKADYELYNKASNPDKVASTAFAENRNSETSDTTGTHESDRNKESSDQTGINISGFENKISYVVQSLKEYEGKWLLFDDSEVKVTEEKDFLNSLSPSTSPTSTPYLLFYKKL
USP1-UAF1, sequence (Q8TAF3 whole entry partner): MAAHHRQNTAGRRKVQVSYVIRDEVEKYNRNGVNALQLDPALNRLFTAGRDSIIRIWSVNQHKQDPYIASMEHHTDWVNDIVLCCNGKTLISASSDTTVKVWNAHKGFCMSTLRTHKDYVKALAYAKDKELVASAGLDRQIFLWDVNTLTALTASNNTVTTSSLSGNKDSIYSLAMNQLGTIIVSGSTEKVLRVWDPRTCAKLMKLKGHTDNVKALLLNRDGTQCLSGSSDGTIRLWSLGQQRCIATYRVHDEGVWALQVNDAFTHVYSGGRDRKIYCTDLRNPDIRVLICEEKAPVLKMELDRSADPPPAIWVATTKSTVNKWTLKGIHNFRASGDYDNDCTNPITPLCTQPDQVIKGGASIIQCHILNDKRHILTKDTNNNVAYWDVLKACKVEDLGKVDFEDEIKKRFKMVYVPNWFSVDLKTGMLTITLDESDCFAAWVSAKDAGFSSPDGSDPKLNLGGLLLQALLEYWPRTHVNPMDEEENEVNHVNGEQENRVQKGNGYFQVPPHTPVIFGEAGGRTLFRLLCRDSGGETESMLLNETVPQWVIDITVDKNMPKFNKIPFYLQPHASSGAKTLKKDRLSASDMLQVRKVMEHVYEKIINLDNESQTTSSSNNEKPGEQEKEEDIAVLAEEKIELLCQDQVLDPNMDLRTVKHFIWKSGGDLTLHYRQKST
Procedure: Certain compounds of the disclosure were assessed for USP1-UAF1 activity in a Ubiquitin Rhodamine assay as described in Example 135.

monoubiquitinated PCNA = test: AlphaLISA assay measuring monoubiquitinated PCNA in MDA-MB-436; format: cell-based; details: Homo sapiens, read-out: Alpha LISA IC50
Text: Table 1 also indicates IC50 values for exemplary compounds in an AlphaLISA assay measuring monoubiquitinated PCNA in a BRCA1 mutant cell line (MDA-MB-436; column 7).

| Compound | IC50 [1] [nM] | IC50 [2] [nM] | IC50 (USP1-UAF1) [nM] | IC50 (monoubiquitinated PCNA) [nM] |
| --- | --- | --- | --- | --- |
| [2H]C([2H])([2H])Oc1ncnc(C2CC2)c1-c1ncc2[nH]nc(Cc3ccc(-c4nc(C(F)(F)F)cn4C)cc3)c2n1 [Compound 163, 5-[4-cyclopropyl-6-(trideuteriomethoxy)pyrimidin-5-yl]-3-[[4-[1-methyl-4-(trifluoromethyl)imidazol-2-yl]phenyl]methyl]-1H-pyrazolo[4,3-d]pyrimidine] | ≥ 10000 | < 100 | < 30 | < 100 |
| COc1ncnc(C2CC2)c1-c1ncc2nn(S(C)(=O)=O)c(Cc3ccc(-c4nc(C(F)(F)F)cn4C)cc3)c2n1 [Compound 164, 5-(4-cyclopropyl-6-methoxy-pyrimidin-5-yl)-2-methylsulfonyl-3-[[4-[1-methyl-4-(trifluoromethyl)imidazol-2-yl]phenyl]methyl]pyrazolo[4,3-d]pyrimidine] | ≥ 10000 | < 100 | 30 to 100 | < 100 |
| CCn1cc(C(F)(F)F)nc1-c1ccc(Cc2n[nH]c3cnc(-c4c(OC)ncnc4C4CC4)nc23)cc1 [Compound 165, 5-(4-cyclopropyl-6-methoxypyrimidin-5-yl)-3-(4-(1-ethyl-4-(trifluoromethyl)-1H-imidazol-2-yl)benzyl)-1H-pyrazolo[4,3-d]pyrimidine] | ≥ 10000 | < 100 | < 30 | < 100 |
| COc1ncnc(C2CC2)c1-c1ncc2c(n1)c(Sc1ccc(-c3nc(C(F)(F)F)cn3C)cc1)cn2C [Compound 166] | ≥ 10000 | 100 to 250 | 100 to 10000 | 250 to 10000 |
| COc1ncnc(C2CC2)c1-c1cc2c(Oc3ccc(-c4nc(C(F)(F)F)cn4C)cc3)c[nH]c2cn1 [Compound 167, 5-(4-cyclopropyl-6-methoxy-pyrimidin-5-yl)-3-[4-[1-methyl-4-(trifluoromethyl)imidazol-2-yl]phenoxy]-1H-pyrrolo[2,3-c]pyridine] | ≥ 10000 | < 100 | 30 to 100 | < 100 |
| Cn1cc(C(F)(F)F)nc1-c1ccc(C(O)c2c[nH]c3cnc(-c4c(OC(F)F)ncnc4C4CC4)nc23)cc1 (stereo not shown) [Compound 168, [2-[4-cyclopropyl-6-(difluoromethoxy)pyrimidin-5-yl]-5H-pyrrolo[3,2-d]pyrimidin-7-yl]-[4-[1-methyl-4-(trifluoromethyl)imidazol-2-yl]phenyl]methanol] | 250 to 10000 | < 100 | 30 to 100 | < 100 |
| COc1ncnc(C2CC2)c1-c1ncc2[nH]nc(Cc3cc(F)c(-c4nc(C(F)(F)F)cn4C)c(F)c3)c2n1 [Compound 171, 5-(4-cyclopropyl-6-methoxy-pyrimidin-5-yl)-3-[[3,5-difluoro-4-[1-methyl-4-(trifluoromethyl)imidazol-2-yl]phenyl]methyl]-1H-pyrazolo[4,3-d]pyrimidine] | ≥ 10000 | < 100 | < 30 | < 100 |
| COc1ncnc(C2CC2(F)F)c1-c1ncc2[nH]nc(Cc3ccc(-c4nc(C(F)(F)F)cn4C)cc3)c2n1 (stereo not shown) [Compound 172, 5-[4-(2,2-difluorocyclopropyl)-6-methoxy-pyrimidin-5-yl]-3-[[4-[1-methyl-4-(trifluoromethyl)imidazol-2-yl]phenyl]methyl]-1H-pyrazolo[4,3-d]pyrimidine] | ≥ 10000 | < 100 | < 30 | < 100 |
| Cn1cc(C(F)(F)F)nc1-c1ccc(Cc2n[nH]c3cnc(-c4c(C5CC5)ccnc4C4CC4)nc23)cc1 [Compound 174] | ≥ 10000 | 100 to 250 | < 30 | 100 to 250 |
| CNc1ncnc(C2CC2)c1-c1ncc2[nH]cc(Cc3ccc(-c4nc(C(F)(F)F)cn4C)cc3)c2n1 [Compound 175] | ≥ 10000 | 100 to 250 | 100 to 10000 | 100 to 250 |
| COc1ncnc(C2CC2)c1-c1ncc2[nH]c(CN(C)C)c(Cc3ccc(-c4nc(C(F)(F)F)cn4C)cc3)c2n1 [Compound 176, 1-[2-(4-cyclopropyl-6-methoxy-pyrimidin-5-yl)-7-[[4-[1-methyl-4-(trifluoromethyl)imidazol-2-yl]phenyl]methyl]-5H-pyrrolo[3,2-d]pyrimidin-6-yl]-N,N-dimethyl-methanamine] | ≥ 10000 | < 100 | 30 to 100 | < 100 |
| COc1ncnc(C2CC2)c1-c1cc2c(Cc3ccc(-c4nc(C(F)(F)F)cn4C)cc3)n[nH]c2cn1 [Compound 177, 5-(4-cyclopropyl-6-methoxypyrimidin-5-yl)-3-(4-(1-methyl-4-(trifluoromethyl)-1H-imidazol-2-yl)benzyl)-1H-pyrazolo[3,4-c]pyridine] | ≥ 10000 | < 100 | < 30 | < 100 |
| CNCc1[nH]c2cnc(-c3cccnc3C3CC3)nc2c1Cc1ccc(-c2nc(C(F)(F)F)cn2C)cc1 [Compound 178, 1-[2-(2-cyclopropyl-3-pyridyl)-7-[[4-[1-methyl-4-(trifluoromethyl)imidazol-2-yl]phenyl]methyl]-5H-pyrrolo[3,2-d]pyrimidin-6-yl]-N-methyl-methanamine] | 250 to 10000 | < 100 | 30 to 100 | < 100 |
| COc1ncnc(C2CC2)c1-c1ncc2[nH]cc(Sc3ccc(-c4nc(C(F)(F)F)cn4C)cc3)c2n1 [Compound 180] | ≥ 10000 | 100 to 250 | 100 to 10000 | 100 to 250 |
| COc1ncnc(C2CC2)c1-c1ncc2[nH]c(F)c(Cc3ccc(-c4nc(C(F)(F)F)cn4C)cc3)c2n1 [Compound 181, 2-(4-cyclopropyl-6-methoxy-pyrimidin-5-yl)-6-fluoro-7-[[4-[1-methyl-4-(trifluoromethyl)imidazol-2-yl]phenyl]methyl]-5H-pyrrolo[3,2-d]pyrimidine] | ≥ 10000 | < 100 | < 30 | < 100 |
| COc1ncnc(OC)c1-c1ncc2[nH]cc(Cc3ccc(-c4nc(C(F)(F)F)cn4C(C)C)cc3)c2n1 [Compound 182] | ≥ 10000 | 100 to 250 | 30 to 100 | < 100 |
| Cn1cc(C(F)(F)F)nc1-c1ccc(Cc2n[nH]c3cnc(-c4c(C5CC5)ncnc4C4CC4)nc23)cc1 [Compound 183, 5-(4,6-dicyclopropylpyrimidin-5-yl)-3-[[4-[1-methyl-4-(trifluoromethyl)imidazol-2-yl]phenyl]methyl]-1H-pyrazolo[4,3-d]pyrimidine] | ≥ 10000 | < 100 | < 30 | < 100 |
| COc1nc(C)nc(C2CC2)c1-c1ncc2[nH]nc(Cc3ccc(-c4nc(C(F)(F)F)cn4C)cc3)c2n1 [Compound 184, 5-(4-cyclopropyl-6-methoxy-2-methylpyrimidin-5-yl)-3-(4-(1-methyl-4-(trifluoromethyl)-1H-imidazol-2-yl)benzyl)-1H-pyrazolo[4,3-d]pyrimidine] | 250 to 10000 | < 100 | 30 to 100 | < 100 |
| Cn1cc(C(F)(F)F)nc1-c1ccc(Cc2n[nH]c3cnc(-c4c(OC(F)F)ncnc4C4CC4)nc23)cc1 [Compound 185, 5-[4-cyclopropyl-6-(difluoromethoxy)pyrimidin-5-yl]-3-[[4-[1-methyl-4-(trifluoromethyl)imidazol-2-yl]phenyl]methyl]-1H-pyrazolo[4,3-d]pyrimidine] | ≥ 10000 | < 100 | < 30 | < 100 |
| Cn1cc(C(F)(F)F)nc1-c1ccc(Cc2c(CN)[nH]c3cnc(-c4cccnc4C4CC4)nc23)cc1 [Compound 186] | 250 to 10000 | 100 to 250 | 30 to 100 | 100 to 250 |
| COc1ncnc(C2CC2)c1-c1ncc2[nH]c(C)c(Cc3ccc(-c4nc(C(F)(F)F)cn4C)cc3)c2n1 [Compound 188] | ≥ 10000 | < 100 | < 30 | < 100 |
| COc1ncnc(C2CC2)c1-c1ncc2[nH]nc(Cc3ccc(-c4nc(C(F)(F)F)cn4C)cc3F)c2n1 [Compound 189, 5-(4-cyclopropyl-6-methoxy-pyrimidin-5-yl)-3-[[2-fluoro-4-[1-methyl-4-(trifluoromethyl)imidazol-2-yl]phenyl]methyl]-1H-pyrazolo[4,3-d]pyrimidine] | ≥ 10000 | < 100 | 30 to 100 | < 100 |
| COc1ncnc(C2CC2)c1-c1ncc2c(n1)c(Cc1ccc(-c3nc(C(F)(F)F)cn3C)cc1)nn2CC(F)(F)F [Compound 190, 5-(4-cyclopropyl-6-methoxy-pyrimidin-5-yl)-3-[[4-[1-methyl-4-(trifluoromethyl)imidazol-2-yl]phenyl]methyl]-1-(2,2,2-trifluoroethyl)pyrazolo[4,3-d]pyrimidine] | ≥ 10000 | < 100 | 30 to 100 | < 100 |
| COc1nccc(C)c1-c1ncc2[nH]nc(Cc3ccc(-c4nc(C(F)(F)F)cn4C)cc3)c2n1 [Compound 191] | ≥ 10000 | 100 to 250 | 100 to 10000 | 250 to 10000 |
| Cn1cc(C(F)(F)F)nc1-c1ccc(Cc2c[nH]c3cnc(-c4c(C5CC5)ncnc4C4CC4)nc23)cc1 [Compound 193, 2-(4,6-dicyclopropylpyrimidin-5-yl)-7-[[4-[1-methyl-4-(trifluoromethyl)imidazol-2-yl]phenyl]methyl]-5H-pyrrolo[3,2-d]pyrimidine] | ≥ 10000 | < 100 | < 30 | < 100 |
